Settings: for viscosity / mass density: 101.33 kPa, Liquid; for viscosity: Cone and plate viscometry; for mass density: Vibrating tube method; for Normal melting temperature: Crystal, DTA; for Glass transition temperature: DSC

CC[P+](CC)(CC)COCCOC.O=[N+]([O-])c1cn[n-]c1
Settings | Glass transition temperature [°C] | Normal melting temperature [°C] | mass density [kg/m3] | viscosity [mPa·s]
– | -76 | -15 | – | –
278.15 K | – | – | – | 309
283.15 K | – | – | 1149.2 | 216
288.15 K | – | – | 1145.8 | 156
293.15 K | – | – | 1142.4 | 116
295.15 K | – | – | 1141 | –
298.15 K | – | – | 1139 | 88
303.15 K | – | – | 1135.6 | 69
308.15 K | – | – | 1132.2 | 55
313.15 K | – | – | 1128.9 | –
318.15 K | – | – | 1125.5 | –
323.15 K | – | – | 1122.2 | –
328.15 K | – | – | 1118.9 | –
333.15 K | – | – | 1115.6 | –
338.15 K | – | – | 1112.3 | –
343.15 K | – | – | 1109.1 | –
348.15 K | – | – | 1105.8 | –
353.15 K | – | – | 1102.6 | –

CCC[n+]1ccn(C)c1C.O=[N+]([O-])c1cn[n-]c1 [1,2-dimethyl-3-propylimidazolium 4-nitropyrazolide]
Settings | Glass transition temperature [°C] | mass density [kg/m3] | viscosity [mPa·s]
– | -50 | – | –
278.15 K | – | – | 9610
283.15 K | – | 1193 | 4500
288.15 K | – | 1189.4 | 2270
293.15 K | – | 1185.6 | 1240
295.15 K | – | 1184.3 | –
298.15 K | – | 1182.2 | 722
303.15 K | – | 1178.9 | 447
308.15 K | – | 1175.5 | 294
313.15 K | – | 1172.2 | 200
318.15 K | – | 1168.9 | 143
323.15 K | – | 1165.7 | 106
328.15 K | – | 1162.5 | 81
333.15 K | – | 1159.3 | 65
338.15 K | – | 1156.1 | 53
343.15 K | – | 1152.8 | –
348.15 K | – | 1149.6 | –
353.15 K | – | 1146.4 | –

CCC=Cn1cc[n+](C)c1C.O=[N+]([O-])c1cn[n-]c1 [1-but-1-enyl-2,3-dimethylimidazolium 4-nitropyrazolide]
Settings | Glass transition temperature [°C] | mass density [kg/m3] | viscosity [mPa·s]
– | -53 | – | –
278.15 K | – | – | 6650
283.15 K | – | 1191.5 | 3260
288.15 K | – | 1187.7 | 1720
293.15 K | – | 1184.2 | 973
295.15 K | – | 1182.8 | –
298.15 K | – | 1180.8 | 590
303.15 K | – | 1177.5 | 380
308.15 K | – | 1174.1 | 255
313.15 K | – | 1170.8 | 179
318.15 K | – | 1167.6 | 131
323.15 K | – | 1164.4 | 99
328.15 K | – | 1161.1 | 77
333.15 K | – | 1157.9 | 62
338.15 K | – | 1154.7 | 50
343.15 K | – | 1151.5 | –
348.15 K | – | 1148.3 | –
353.15 K | – | 1145.2 | –

CCCC[n+]1cccn1C.O=S(=O)([N-]S(=O)(=O)C(F)(F)F)C(F)(F)F [1-butyl-2-methylpyrazolium bis(trifluoromethylsulfonyl)imide]
Settings | Glass transition temperature [°C] | mass density [kg/m3] | viscosity [mPa·s]
– | -82 | – | –
278.15 K | – | – | 214
283.15 K | – | 1465.4 | 155
288.15 K | – | 1460.7 | 116
293.15 K | – | 1456 | 88
295.15 K | – | 1454.06 | –
298.15 K | – | 1451.2 | 70
303.15 K | – | 1446.5 | 55
308.15 K | – | 1441.8 | –
313.15 K | – | 1437.1 | –
318.15 K | – | 1432.4 | –
323.15 K | – | 1427.7 | –
328.15 K | – | 1423 | –
333.15 K | – | 1418.4 | –
338.15 K | – | 1413.8 | –
343.15 K | – | 1409.1 | –
348.15 K | – | 1404.6 | –
353.15 K | – | 1400 | –

CCCC[S+]1CCCCC1.O=S(=O)([N-]S(=O)(=O)C(F)(F)F)C(F)(F)F [1-butylthianium bis(trifluoromethylsulfonyl)imide]
Settings | Glass transition temperature [°C] | Normal melting temperature [°C] | viscosity [mPa·s]
– | -82 | -10 | –
278.15 K | – | – | 398
283.15 K | – | – | 279
288.15 K | – | – | 200
293.15 K | – | – | 148
298.15 K | – | – | 112
303.15 K | – | – | 88
308.15 K | – | – | 70
313.15 K | – | – | 57

Cc1n(C2CCCC2)cc[n+]1C.O=[N+]([O-])c1cn[n-]c1 [1-cyclopentyl-2,3-dimethylimidazolium 4-nitropyrazolide]
Settings | Normal melting temperature [°C]
– | 92

CCCCCCn1cc[n+](C)c1C.O=[N+]([O-])c1cn[n-]c1 [1-hexyl-2,3-dimethylimidazolium 4-nitropyrazolide]
Settings | Glass transition temperature [°C] | mass density [kg/m3] | viscosity [mPa·s]
– | -47 | – | –
278.15 K | – | – | 14600
283.15 K | – | 1129.4 | 6910
288.15 K | – | 1126 | 3490
293.15 K | – | 1122.4 | 1910
295.15 K | – | 1121 | –
298.15 K | – | 1118.9 | 1110
303.15 K | – | 1115.7 | 691
308.15 K | – | 1112.4 | 450
313.15 K | – | 1109.2 | 303
318.15 K | – | 1106 | 213
323.15 K | – | 1102.8 | 147
328.15 K | – | 1099.7 | 112
333.15 K | – | 1096.6 | 87
338.15 K | – | 1093.5 | 69
343.15 K | – | 1090.4 | 56
348.15 K | – | 1087.4 | –
353.15 K | – | 1084.3 | –
